Measured values as given in US7250157B2, “Dermatological compositions and methods” (Applied Genetics Incorporated Dermatics, priority 1996, dated 2007).
Structures can show the parent of a compound that is named as a salt. One block for each compound: values may come before it.

Test system: tyrosinase activity in S91 mouse melanoma cells
Assay: Induction of tyrosinase activity in S91 cells
Conditions: for relative melanogenic potency in S91 cells (in words): Table 19 data

Fold Induction of Tyrosinase Relative to Controls (1 mM (Table 15)): 2.7X
Fold Induction of Tyrosinase Relative to Controls (5 mM (Table 15)): 2.3X
Compound: O=COC1CC2CCC1C2 (racemic) [± exo-2-norbornyl formate]

Fold Induction of Tyrosinase Relative to Controls (0.5 mM (Table 19)): 1.0X
Fold Induction of Tyrosinase Relative to Controls (1 mM (Table 19)): 3.0X
Fold Induction of Tyrosinase Relative to Controls (2.5 mM (Table 19)): 15.5X
Compound: CC1=C[C@H](O)[C@H]2C[C@@H]1C2(C)C (relative stereo) [(S)-cis-verbenol]

Fold Induction of Tyrosinase Relative to Controls (0.5 mM (Table 19)): 5.2X
Fold Induction of Tyrosinase Relative to Controls (1 mM (Table 19)): 13.2X
Fold Induction of Tyrosinase Relative to Controls (2.5 mM (Table 19)): 21.0X
Fold Induction of Tyrosinase Relative to Controls (5 mM (Table 19)): 7.3X
Compound: C[C@@H]1CC[C@@H](C(C)(C)O)[C@H](O)C1 (relative stereo) [trans-p-menthane-3,8-diol]

Fold Induction of Tyrosinase Relative to Controls (0.5 mM (Table 19)): 2.3X
Fold Induction of Tyrosinase Relative to Controls (1 mM (Table 19)): 3.3X
detachment of cells from culture dishes (no tyrosinase analysis) (2.5 mM (Table 19)): NA^2
Compound: CC1C(O)CC2CC1C2(C)C (single isomer, unassigned; (-)) [(−)-isopinocampheol]
toxicity to S91 cells (in words) (higher concentrations tested (Table 19)): resulted in detachment of cells from culture dishes

Fold Induction of Tyrosinase Relative to Controls (1 mM (Table 19)): 14.3X
Fold Induction of Tyrosinase Relative to Controls (2.5 mM (Table 19)): 96.0X
Fold Induction of Tyrosinase Relative to Controls (5 mM (Table 19)): 36.8X
Compound: CC1(C)C2CCC(CO)[C@]1(O)C2 (stereo in doubt) [(1R)-(−)-trans-pinane-1,10-diol]
relative melanogenic potency in S91 cells (in words): almost-identical to that of (1R, 2R, 3S, 5R)-(−)-pinanediol

Fold Induction of Tyrosinase Relative to Controls (1 mM (Table 16)): 0.8X
Fold Induction of Tyrosinase Relative to Controls (2.5 mM (Table 16)): 1.6X
Fold Induction of Tyrosinase Relative to Controls (5 mM (Table 16)): 3.5X
Compound: OC1CC2CCC1C2O (centres unmarked) [2,7-norbornanediol]

Fold Induction of Tyrosinase Relative to Controls (1 mM (Table 16)): 9.2X
Fold Induction of Tyrosinase Relative to Controls (2.5 mM (Table 16)): 15.5X
Fold Induction of Tyrosinase Relative to Controls (5 mM (Table 16)): 45.0X
Compound: OCC1(O)CC2CCC1C2 (centres unmarked) [2-hydroxy-2-norbornanemethanol]

Fold Induction of Tyrosinase Relative to Controls (1 mM (Table 15)): 4.6X
Fold Induction of Tyrosinase Relative to Controls (5 mM (Table 15)): 12.9X
Compound: O=C(O)CC1CC2CCC1C2 (centres unmarked) [2-norbornaneacetic acid]

Second part, the compound before the results:

Compound: 1-(exo & endo-2-norbornyl-)-propan-1,2-diol
Fold Induction of Tyrosinase Relative to Controls (0.5 mM (Table 16)): 2.2X
Fold Induction of Tyrosinase Relative to Controls (1 mM (Table 16)): 4.2X
Fold Induction of Tyrosinase Relative to Controls (2.5 mM (Table 16)): 48.5X
Fold Induction of Tyrosinase Relative to Controls (5 mM (Table 16)): 2.0X

Compound: 2,3-cis & trans-bornanediol
Fold Induction of Tyrosinase Relative to Controls (0.5 mM (Table 19)): 9.9X
Fold Induction of Tyrosinase Relative to Controls (1 mM (Table 19)): 37.3X
Fold Induction of Tyrosinase Relative to Controls (2.5 mM (Table 19)): 99.7X
relative melanogenic potency in S91 cells (in words): approximately twice as much melanogenic activity as (1R, 2R, 3S, 5R)-(−)-pinanediol

Compound: 2,5 & 6,7-norbornanetriol
Fold Induction of Tyrosinase Relative to Controls (1 mM (Table 15)): 5.1X
Fold Induction of Tyrosinase Relative to Controls (2 mM (Table 15)): 5.1X

Compound: C=C(C)C1CC=C(C)CC1 (single isomer, unassigned; (+)) [R-(+)-limonene, (+)-p-mentha-1,8-diene]
relative melanogenic potency in S91 cells (in words): little or no melanogenic activity

Compound: OC[C@@H]1CCCC[C@@H]1CO [1,2-cis-cyclohexanedimethanol]
Fold Induction of Tyrosinase Relative to Controls (1 mM (Table 16)): 0.9X
Fold Induction of Tyrosinase Relative to Controls (2.5 mM (Table 16)): 6.1X
detachment of cells from culture dishes (no tyrosinase analysis) (5 mM (Table 16)): NA^

Compound: OCC1CCC(CO)CC1 (centres unmarked) [1,4-cyclohexanedimethanol]
Fold Induction of Tyrosinase Relative to Controls (1 mM (Table 16)): 1.2X
Fold Induction of Tyrosinase Relative to Controls (2.5 mM (Table 16)): 1.7X
Fold Induction of Tyrosinase Relative to Controls (5 mM (Table 16)): 3.2X

Compound: OC1C2CCC(C2)C1O (stereo not drawn) [2,3-c/e-NBaneD, 2,3-cis/exo-Norbornanediol]
induction of tyrosinase in S91 cells compared with 5-NBene-2,2-DM (FIG. 2): Lesser induction

Compound: CC1(C)C2CCC1(C)C(O)C2O (stereo not drawn) [2,3-cis/exo-bornanediol]
Fold Induction of Tyrosinase Relative to Controls (0.5 mM (Table 19)): 10.2X
Fold Induction of Tyrosinase Relative to Controls (1 mM (Table 19)): 28.5X
Fold Induction of Tyrosinase Relative to Controls (2.5 mM (Table 19)): 101X
relative melanogenic potency in S91 cells (in words): more than twice as potent as 2,3-trans-bornanediol

Compound: CC1(C)C2CCC1(C)C(O)C2O (stereo not drawn) [2,3-trans-bornanediol]
Fold Induction of Tyrosinase Relative to Controls (0.5 mM (Table 19)): 4.7X
Fold Induction of Tyrosinase Relative to Controls (1 mM (Table 19)): 12.8X
Fold Induction of Tyrosinase Relative to Controls (2.5 mM (Table 19)): 22.1X
